The record followed here is patent US20260132132A1, “3A,4,5,6-TETRAHYDRO-1 H-PYRAZOLO[3,4-C]PYRIDIN-7(7AH)-ONE DERIVATIVES AS FACTOR XIIA INHIBITORS” (KALVISTA PHARMACEUTICALS LIMITED, priority 2022, published 2026).

In experiment [1] the target is T1, Human Factor XIIa (hFXIIa) (Homo sapiens, UniProt P00748).
T1 construct: purchased Enzyme Research Laboratories
T1 sequence (P00748 373-615 limits assumed): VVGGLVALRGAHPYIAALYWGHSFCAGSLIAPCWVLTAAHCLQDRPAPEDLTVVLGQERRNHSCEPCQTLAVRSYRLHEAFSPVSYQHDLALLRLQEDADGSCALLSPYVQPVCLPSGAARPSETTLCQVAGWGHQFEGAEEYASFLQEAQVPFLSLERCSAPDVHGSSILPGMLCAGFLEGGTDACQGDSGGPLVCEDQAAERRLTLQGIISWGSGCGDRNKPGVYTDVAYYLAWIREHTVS
T1 sequence (P00748 20-372 partner limits assumed): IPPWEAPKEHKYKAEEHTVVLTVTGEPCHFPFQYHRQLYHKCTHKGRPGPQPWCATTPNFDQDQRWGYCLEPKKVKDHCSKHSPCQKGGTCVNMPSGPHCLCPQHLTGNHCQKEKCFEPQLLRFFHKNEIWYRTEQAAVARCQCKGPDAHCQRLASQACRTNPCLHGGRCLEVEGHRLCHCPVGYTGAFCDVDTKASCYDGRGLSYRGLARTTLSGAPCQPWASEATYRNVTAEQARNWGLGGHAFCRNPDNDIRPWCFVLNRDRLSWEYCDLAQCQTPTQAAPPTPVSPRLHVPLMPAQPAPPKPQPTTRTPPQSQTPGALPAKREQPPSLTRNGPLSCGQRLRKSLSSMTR
The experiment in a line: Determination of Human Factor XIIa (hFXIIa) inhibition, fluorogenic substrate IC50 assay. In kind it is biochemical. The following applies: fluorogenic substrate H-DPro-Phe-Arg-AFC at Km, 25° C., read-out: Human FXIIa IC50. How it is done:
Determination of Human Factor XIIa (hFXIIa) inhibition
The Km for the cleavage of the substrate by hFXIIa was determined by standard transformation of the Michaelis-Menten equation, with subsequent inhibition assays performed at substrate Km concentration.

Another experiment concerns the target FXa (Homo sapiens, UniProt P00742). Put plainly: Related protease inhibition: FXa, fluorogenic substrate. In kind it is biochemical. The conditions noted are these: fluorogenic substrate at Km, 25° C.; H1-H3 = % activity at 40 μM. How it is done: Human serine protease enzyme Plasma Kallikrein, KLK1, FXa, Plasmin, Thrombin and Trypsin were assayed for enzymatic activity using an appropriate fluorogenic substrate at Km concentration, FXIa at fixed substrate concentration of 100 μM and various concentrations of the test compound.

Chain of FXa (P00742 235-488 limits assumed): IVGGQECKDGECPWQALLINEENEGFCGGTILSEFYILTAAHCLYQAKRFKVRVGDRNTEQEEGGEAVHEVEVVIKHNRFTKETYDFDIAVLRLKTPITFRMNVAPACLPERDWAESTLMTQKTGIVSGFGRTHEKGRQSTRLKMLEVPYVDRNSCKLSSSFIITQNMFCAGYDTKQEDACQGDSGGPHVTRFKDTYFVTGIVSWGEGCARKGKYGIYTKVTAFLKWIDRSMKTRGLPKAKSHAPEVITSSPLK
Chain of FXa (P00742 41-179 partner limits assumed): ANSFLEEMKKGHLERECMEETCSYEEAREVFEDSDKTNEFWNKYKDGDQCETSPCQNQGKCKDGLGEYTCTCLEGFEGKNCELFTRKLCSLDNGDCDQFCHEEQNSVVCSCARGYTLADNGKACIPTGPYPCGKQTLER

Consider `CN1CCc2ccc(N3CCc4c(C(=O)NC(CO)c5cccnc5)nn(-c5cccc(Cl)c5)c4C3=O)cc2C1=O` (centres unmarked) [Example 1187, 1-(3-chlorophenyl)-N-(2-hydroxy-1-(pyridin-3-yl)ethyl)-6-(2-methyl-1-oxo-1,2,3,4-tetrahydroisoquinolin-7-yl)-7-oxo-4,5,6,7-tetrahydro-1H-pyrazolo[3,4-c]pyridine-3-carboxamide], for which the IC50 (usually the concentration needed to halve the response being measured) in experiment [1] is 0.3 to 1 µM; at FXa it was greater than 40 µM.

`CC(=O)N1CCc2ccc(N3CCc4c(C(=O)NCc5cnccc5C)nn(-c5cccc(Cl)c5)c4C3=O)cc21` [Example 1188, 6-(1-acetylindolin-6-yl)-1-(3-chlorophenyl)-N-((4-methylpyridin-3-yl)methyl)-7-oxo-4,5,6,7-tetrahydro-1H-pyrazolo[3,4-c]pyridine-3-carboxamide]: the IC50 was 0.1 to 0.3 µM in experiment [1] and greater than 40 µM against FXa.

For `Cc1cc(C)c(CNC(=O)c2nn(-c3cccc(Cl)c3)c3c2CCN(c2ccc4c(c2)C(=O)N(C)CC4)C3=O)cn1` [Example 1189, 1-(3-chlorophenyl)-N-((4,6-dimethylpyridin-3-yl)methyl)-6-(2-methyl-1-oxo-1,2,3,4-tetrahydroisoquinolin-7-yl)-7-oxo-4,5,6,7-tetrahydro-1H-pyrazolo[3,4-c]pyridine-3-carboxamide], the figures for the IC50 (in experiment [1]; at FXa) were 0.01 to 0.1 µM and greater than 40 µM, respectively.

For the compound `Cc1ncc(CNC(=O)c2nn(-c3cccc(Cl)c3)c3c2CCN(c2ccc4c(c2)C(=O)N(C)CC4)C3=O)s1` [Example 1193, 1-(3-chlorophenyl)-6-(2-methyl-1-oxo-1,2,3,4-tetrahydroisoquinolin-7-yl)-N-((2-methylthiazol-5-yl)methyl)-7-oxo-4,5,6,7-tetrahydro-1H-pyrazolo[3,4-c]pyridine-3-carboxamide], the IC50 in experiment [1] was 0.1 to 0.3 µM; at FXa, greater than 40 µM.

On to `Cc1ncc(CNC(=O)c2nn(-c3cccc(Cl)c3)c3c2CCN(c2ccc4c(c2)C(=O)N(C)CC4)C3=O)o1` [Example 1194, 1-(3-chlorophenyl)-6-(2-methyl-1-oxo-1,2,3,4-tetrahydroisoquinolin-7-yl)-N-((2-methyloxazol-5-yl)methyl)-7-oxo-4,5,6,7-tetrahydro-1H-pyrazolo[3,4-c]pyridine-3-carboxamide], for which the IC50 in experiment [1] is 0.3 to 1 µM; on FXa it was greater than 40 µM.

For the compound `CN(C)C(=O)c1cccc(N2CCc3c(C(=O)NCC4CC4)nn(-c4cccc(Cl)c4)c3C2=O)c1` [Example 1195, 1-(3-Chlorophenyl)-N-(cyclopropylmethyl)-6-[3-(dimethylcarbamoyl)phenyl]-7-oxo-4,5-dihydropyrazolo[3,4-c]pyridine-3-carboxamide], the IC50 in experiment [1] is 3 to 10 µM; on FXa, greater than 40 µM.

In the case of `CN1CCc2ccc(N3CCc4c(C(=O)NC5CCOC5(C)C)nn(-c5cccc(Cl)c5)c4C3=O)cc2C1=O` (centres unmarked) [Example 1197, 1-(3-chlorophenyl)-N-(2,2-dimethyltetrahydrofuran-3-yl)-6-(2-methyl-1-oxo-1,2,3,4-tetrahydroisoquinolin-7-yl)-7-oxo-4,5,6,7-tetrahydro-1H-pyrazolo[3,4-c]pyridine-3-carboxamide], the IC50 in experiment [1] is 0.3 to 1 µM; against FXa it was greater than 40 µM.

`CN1CCc2ccc(N3CCc4c(C(=O)NCC5CCOC5)nn(-c5cccc(Cl)c5)c4C3=O)cc2C1=O` (centres unmarked) [Example 1198, 1-(3-chlorophenyl)-6-(2-methyl-1-oxo-1,2,3,4-tetrahydroisoquinolin-7-yl)-7-oxo-N-((tetrahydrofuran-3-yl)methyl)-4,5,6,7-tetrahydro-1H-pyrazolo[3,4-c]pyridine-3-carboxamide]: the IC50 in experiment [1] is 0.3 to 1 µM; at FXa, greater than 40 µM.

With `Cc1cc(CNC(=O)c2nn(-c3cccc(Cl)c3)c3c2CCN(c2ccc4c(c2)C(=O)N(C)CC4)C3=O)nn1C` [Example 1199, 1-(3-chlorophenyl)-N-((1,5-dimethyl-1H-pyrazol-3-yl)methyl)-6-(2-methyl-1-oxo-1,2,3,4-tetrahydroisoquinolin-7-yl)-7-oxo-4,5,6,7-tetrahydro-1H-pyrazolo[3,4-c]pyridine-3-carboxamide], the IC50 in experiment [1] was in the range of 0.1 to 0.3 µM; against FXa, 10 to 40 µM.

For `Cc1cc(CNC(=O)c2nn(-c3cccc(Cl)c3)c3c2CCN(c2ccc4c(c2)C(=O)N(C)CC4)C3=O)n[nH]1` [Example 1200, 1-(3-chlorophenyl)-6-(2-methyl-1-oxo-1,2,3,4-tetrahydroisoquinolin-7-yl)-N-((5-methyl-1H-pyrazol-3-yl)methyl)-7-oxo-4,5,6,7-tetrahydro-1H-pyrazolo[3,4-c]pyridine-3-carboxamide], the figures for the IC50 (in experiment [1]; against FXa) were 0.1 to 0.3 µM and 10 to 40 µM, respectively.

As to `Cc1cncc(CNC(=O)c2nn(-c3cccc(Cl)c3)c3c2CCN(c2ccc4c(c2)C(=O)N(C)CC4)C3=O)c1` [Example 1201, 1-(3-chlorophenyl)-6-(2-methyl-1-oxo-1,2,3,4-tetrahydroisoquinolin-7-yl)-N-((5-methylpyridin-3-yl)methyl)-7-oxo-4,5,6,7-tetrahydro-1H-pyrazolo[3,4-c]pyridine-3-carboxamide], the IC50 in experiment [1] lay in the range of 0.1 to 0.3 µM; at FXa, 10 to 40 µM.

As for `CN1CCc2ccc(N3CCc4c(C(=O)NCc5cccnn5)nn(-c5cccc(Cl)c5)c4C3=O)cc2C1=O` [Example 1202, 1-(3-chlorophenyl)-6-(2-methyl-1-oxo-1,2,3,4-tetrahydroisoquinolin-7-yl)-7-oxo-N-(pyridazin-3-ylmethyl)-4,5,6,7-tetrahydro-1H-pyrazolo[3,4-c]pyridine-3-carboxamide], the IC50 in experiment [1] is 0.3 to 1 µM; against FXa, greater than 40 µM.

As to `CN1CCc2ccc(N3CCc4c(C(=O)NC5CCOCC5)nn(-c5cccc(Cl)c5)c4C3=O)cc2C1=O` [Example 1203, 1-(3-chlorophenyl)-6-(2-methyl-1-oxo-1,2,3,4-tetrahydroisoquinolin-7-yl)-7-oxo-N-(tetrahydro-2H-pyran-4-yl)-4,5,6,7-tetrahydro-1H-pyrazolo[3,4-c]pyridine-3-carboxamide], the figures for the IC50 (in experiment [1]; on FXa) were 0.1 to 0.3 µM and greater than 40 µM, respectively.

Take `O=C(NCc1cccnn1)c1nn(-c2cccc(Cl)c2)c2c1CCN(c1ccc3c(c1)CN(CCO)CC3)C2=O` [Example 1204, 1-(3-chlorophenyl)-6-(2-(2-hydroxyethyl)-1,2,3,4-tetrahydroisoquinolin-7-yl)-7-oxo-N-(pyridazin-3-ylmethyl)-4,5,6,7-tetrahydro-1H-pyrazolo[3,4-c]pyridine-3-carboxamide]: the IC50 in experiment [1] is 0.1 to 0.3 µM; against FXa it was greater than 40 µM.

As to `Cc1cc(CNC(=O)c2nn(-c3cccc(Cl)c3)c3c2CCN(c2ccc4c(c2)CCN(C)C4=O)C3=O)nn1C` [Example 1205, 1-(3-chlorophenyl)-N-((1,5-dimethyl-1H-pyrazol-3-yl)methyl)-6-(2-methyl-1-oxo-1,2,3,4-tetrahydroisoquinolin-6-yl)-7-oxo-4,5,6,7-tetrahydro-1H-pyrazolo[3,4-c]pyridine-3-carboxamide], the IC50 is 10 to 40 µM in experiment [1] and greater than 40 µM against FXa.

`Cc1cc(CNC(=O)c2nn(-c3cccc(Cl)c3)c3c2CCN(c2ccc4c(c2)C(=O)N(C)C4)C3=O)nn1C` [Example 1206, 1-(3-chlorophenyl)-N-((1,5-dimethyl-1H-pyrazol-3-yl)methyl)-6-(2-methyl-3-oxoisoindolin-5-yl)-7-oxo-4,5,6,7-tetrahydro-1H-pyrazolo[3,4-c]pyridine-3-carboxamide]: the values for the IC50 (in experiment [1]; at FXa) were 1 to 3 µM and greater than 40 µM, respectively.

For the compound `CN1C(=O)CCc2ccc(N3CCc4c(C(=O)NCC5CC5)nn(-c5cccc(Cl)c5)c4C3=O)cc21` [Example 1207, 1-(3-chlorophenyl)-N-(cyclopropylmethyl)-6-(1-methyl-2-oxo-1,2,3,4-tetrahydroquinolin-7-yl)-7-oxo-4,5,6,7-tetrahydro-1H-pyrazolo[3,4-c]pyridine-3-carboxamide], the IC50 in experiment [1] is 3 to 10 µM; against FXa, greater than 40 µM.

As for `Cc1cc(CNC(=O)c2nn(-c3cccc(Cl)c3)c3c2CCN(c2ccc4c(c2)N(C)C(=O)CC4)C3=O)nn1C` [Example 1208, 1-(3-chlorophenyl)-N-((1,5-dimethyl-1H-pyrazol-3-yl)methyl)-6-(1-methyl-2-oxo-1,2,3,4-tetrahydroquinolin-7-yl)-7-oxo-4,5,6,7-tetrahydro-1H-pyrazolo[3,4-c]pyridine-3-carboxamide], the IC50 in experiment [1] lay in the range of 1 to 3 µM; against FXa it was 10 to 40 µM.

Take `CCCN1CCc2ccc(N3CCc4c(C(=O)NCc5cnccc5C)nn(-c5cccc(Cl)c5)c4C3=O)cc2C1=O` [Example 1209, 1-(3-chlorophenyl)-N-((4-methylpyridin-3-yl)methyl)-7-oxo-6-(1-oxo-2-propyl-1,2,3,4-tetrahydroisoquinolin-7-yl)-4,5,6,7-tetrahydro-1H-pyrazolo[3,4-c]pyridine-3-carboxamide]: the IC50 in experiment [1] is 0.1 to 0.3 µM; against FXa, greater than 40 µM.
